Assay results as given in ChEMBL document CHEMBL5316327, “Design and Synthesis of Orally Active Quinolyl Pyrazinamides as Sigma 2 Receptor Ligands for the Treatment of Pancreatic Cancer” (J Med Chem, 2023).
Active and inactive are the calls of the source. No cut-off for these calls is given here.

Tests used:
[1] = Apparent volume of distribution during terminal phase in CD-1 mouse plasma at 20 mg/kg, po; format: ADME, organism-based; conditions: read-out: Vz/F
HCT-116 [2] = experiment: Synergistic cytotoxicity against human HCT-116 cells at upto 1 uM measured after 6 days in presence of gold acetate by crystal violet staining based analysis; format: functional, cell-based; conditions: time 6.0 day
[3] = biological target: Sigma non-opioid intracellular receptor 1 (Homo sapiens, UniProt Q99720); experiment: Displacement of [3H](+)-pentazocine from human sigma 1 receptor transfected in human HEK293T cells assessed as inhibition constant by radioligand competition binding assay; format: cell-based
Histamine H3 receptor = Histamine H3 receptor (Homo sapiens, UniProt Q9Y5N1); experiment: Binding affinity to histamine H3 receptor (unknown origin) assessed as inhibition constant
MIA PaCa-2 [4] = experiment: Synergistic cytotoxicity in human MIA PaCa-2 cells at upto 1 uM measured after 7 days in presence of gemcitabine by crystal violet staining based analysis; format: functional, cell-based; conditions: time 7.0 day
MIA PaCa-2 [5] = experiment: Induction of autophagy in human MIA PaCa-2 cells assessed as upregulation of LC-3 level at 1 to 10 uM measured after 24 hrs; format: functional, cell-based; conditions: dose 1-10 µM
[6] = AUC (0 to infinity) in CD-1 mouse plasma at 10 mg/kg, iv; format: ADME, organism-based; set-up: dose 10 mg/kg, route iv
MIA PaCa-2 [7] = experiment: Induction of cell cycle arrest in human MIA PaCa-2 cells assessed as accumulation of cells in G0/G1 phase at 5 uM measured after 24 hrs by propidium iodide staining-based flow cytometric analysis (reference value: 53%); format: functional
[8] = AUC (0 to time of last detectable concentration) in CD-1 mouse plasma at 20 mg/kg, po; format: ADME, organism-based; set-up: dose 20 mg/kg, route po
MIA PaCa-2 [9] = experiment: Synergistic cytotoxicity in human MIA PaCa-2 cells at upto 1 uM measured after 7 days in presence of doxorubicin by crystal violet staining based analysis; format: functional, cell-based; conditions: time 7.0 day
HCT-116 [10] = experiment: Antagonistic cytotoxicity against human HCT-116 cells at upto 1 uM measured after 6 days in presence of disulfiram by crystal violet staining based analysis; format: functional, cell-based; conditions: time 6.0 day
HCT-116 [11] = experiment: Induction of cell cycle arrest in human HCT-116 cells assessed as accumulation of cells in S phase at […] measured after 24 hrs by propidium iodide staining-based flow cytometric analysis (reference value: 47%); format: functional; conditions: dose 2.5 µM
HCT-116 [12] = experiment: Induction of apoptosis in human HCT-116 cells assessed as necrotic cells at 5.0 uM measured after 48 hrs by Annexin V-Alexa Fluor 488/propidium iodide staining based flow cytometry (reference value: 9.06%); format: functional
HCT-116 [13] = experiment: Induction of apoptosis in human HCT-116 cells assessed as early apoptotic cells at 1.0 uM measured after 48 hrs by Annexin V-Alexa Fluor 488/propidium iodide staining based flow cytometry (reference value: 2.77%); format: functional
MIA PaCa-2 [14] = experiment: Upregulation of GRP78 in human MIA PaCa-2 cells at 10 uM measured after 24 hrs by Western blot analysis; format: functional, cell-based
[15] = Half life in CD-1 mouse plasma at 20 mg/kg, po; format: ADME, organism-based
Panc02 = experiment: Antitumor activity against mouse Panc02 cells xenografted in C57BL/6 mouse model assessed as delayed tumor growth at 30 mg/kg, po administered daily for 32 days in presence of copper sulfate by caliper method; format: functional, organism-based; conditions: time 32.0 day
MIA PaCa-2 [16] = experiment: Upregulation of LC3-B expression in human MIA-PaCa-2 cells measured after 72 hrs; format: functional, cell-based; conditions: dose 1-5 µM
MIA PaCa-2 [17] = experiment: Synergistic cytotoxicity in human MIA PaCa-2 cells at upto 1 uM measured after 7 days in presence of CI-27 by crystal violet staining based analysis; format: functional, cell-based; conditions: time 7.0 day
MIA PaCa-2 [18] = experiment: Induction of apoptosis in human MIA PaCa-2 cells assessed as late apoptotic cells at 1.0 uM measured after 48 hrs by Annexin V-Alexa Fluor 488/propidium iodide staining based flow cytometry (reference value: 6.63%); format: functional
MIA PaCa-2 [19] = experiment: Additive ferroptosis activity in human MIA-PaCa-2 cells at upto 1 uM measured after 7 days in presence of deferoxamine by crystal violet staining based analysis; format: functional, cell-based; conditions: time 7.0 day
HCT-116 [20] = experiment: Induction of apoptosis in human HCT-116 cells assessed as early apoptotic cells at […] measured after 48 hrs by Annexin V-Alexa Fluor 488/propidium iodide staining based flow cytometry (reference value: 2.77%); format: functional; conditions: dose 2.5 µM
BXPC-3 = experiment: cells; conditions: Homo sapiens, BXPC-3, 72 h
[21] = biological target: 5-hydroxytryptamine receptor 2C (Homo sapiens, UniProt P28335); experiment: Binding affinity to 5-HT2C receptor (unknown origin) assessed as inhibition constant
MIA PaCa-2 [22] = experiment: Induction of apoptosis in human MIA PaCa-2 cells assessed as early apoptotic cells at 1.0 uM measured after 48 hrs by Annexin V-Alexa Fluor 488/propidium iodide staining based flow cytometry (reference value: 4.11%); format: functional
HCT-116 [23] = experiment: Induction of cell cycle arrest in human HCT-116 cells assessed as accumulation of cells in G0/G1 phase at […] measured after 24 hrs by propidium iodide staining-based flow cytometric analysis (reference value: 43%); format: functional; conditions: dose 2.5 µM
MIA PaCa-2 [24] = experiment: Induction of apoptosis in human MIA PaCa-2 cells assessed as late apoptotic cells at 5.0 uM measured after 48 hrs by Annexin V-Alexa Fluor 488/propidium iodide staining based flow cytometry (reference value: 6.63%); format: functional
HCT-116 [25] = experiment: Induction of apoptosis in human HCT-116 cells assessed as late apoptotic cells at 10.0 uM measured after 48 hrs by Annexin V-Alexa Fluor 488/propidium iodide staining based flow cytometry (reference value: 8.48%); format: functional
MIA PaCa-2 [26] = experiment: Additive cytotoxicity against human MIA PaCa-2 cells at upto 1 uM measured after 7 days in presence of copper chloride by crystal violet staining based analysis; format: functional, cell-based; conditions: time 7.0 day
PANC-1 = experiment: cells; conditions: Homo sapiens, PANC-1, 72 h
HCT-116 [27] = experiment: Induction of apoptosis in human HCT-116 cells assessed as early apoptotic cells at 5.0 uM measured after 48 hrs by Annexin V-Alexa Fluor 488/propidium iodide staining based flow cytometry (reference value: 2.77%); format: functional
MIA PaCa-2 [28] = experiment: Induction of apoptosis in human MIA PaCa-2 cells assessed as late apoptotic cells at 10.0 uM measured after 48 hrs by Annexin V-Alexa Fluor 488/propidium iodide staining based flow cytometry (reference value: 6.63%); format: functional
HCT-116 [29] = experiment: Induction of apoptosis in human HCT-116 cells assessed as necrotic cells at […] measured after 48 hrs by Annexin V-Alexa Fluor 488/propidium iodide staining based flow cytometry (reference value: 9.06%); format: functional; conditions: dose 2.5 µM
MIA PaCa-2 [30] = experiment: Induction of apoptosis in human MIA PaCa-2 cells assessed as viable cells at […] measured after 48 hrs by Annexin V-Alexa Fluor 488/propidium iodide staining based flow cytometry (reference value: 82.23%); format: functional; conditions: dose 2.5 µM, read-out: Activity
HCT-116 [31] = experiment: Induction of apoptosis in human HCT-116 cells assessed as late apoptotic cells at 1.0 uM measured after 48 hrs by Annexin V-Alexa Fluor 488/propidium iodide staining based flow cytometry (reference value: 8.48%); format: functional
MIA PaCa-2 [32] = experiment: Induction of apoptosis in human MIA PaCa-2 cells assessed as late apoptotic cells at […] measured after 48 hrs by Annexin V-Alexa Fluor 488/propidium iodide staining based flow cytometry (reference value: 6.63%); format: functional; conditions: dose 2.5 µM

Sigma non-opioid intracellular receptor 1, sequence (Q99720 whole entry): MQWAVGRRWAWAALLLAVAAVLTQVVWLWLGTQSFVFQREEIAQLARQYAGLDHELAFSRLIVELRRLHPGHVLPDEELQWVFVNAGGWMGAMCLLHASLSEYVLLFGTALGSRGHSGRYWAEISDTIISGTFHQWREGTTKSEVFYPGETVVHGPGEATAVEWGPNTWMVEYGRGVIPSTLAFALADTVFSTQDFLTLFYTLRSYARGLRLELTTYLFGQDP
Histamine H3 receptor, sequence (Q9Y5N1 whole entry): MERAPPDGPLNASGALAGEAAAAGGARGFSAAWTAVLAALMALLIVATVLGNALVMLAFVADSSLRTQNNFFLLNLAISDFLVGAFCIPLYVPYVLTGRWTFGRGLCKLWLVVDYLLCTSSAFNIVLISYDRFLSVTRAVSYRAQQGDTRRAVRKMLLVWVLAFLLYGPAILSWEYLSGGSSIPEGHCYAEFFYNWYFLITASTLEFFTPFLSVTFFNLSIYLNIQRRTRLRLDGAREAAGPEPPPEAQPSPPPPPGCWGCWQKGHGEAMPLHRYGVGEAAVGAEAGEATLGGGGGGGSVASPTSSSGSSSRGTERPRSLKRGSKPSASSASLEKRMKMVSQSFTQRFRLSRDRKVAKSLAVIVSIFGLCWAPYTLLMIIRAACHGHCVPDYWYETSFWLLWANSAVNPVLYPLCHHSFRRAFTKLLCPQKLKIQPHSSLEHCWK
5-hydroxytryptamine receptor 2C, sequence (P28335 whole entry): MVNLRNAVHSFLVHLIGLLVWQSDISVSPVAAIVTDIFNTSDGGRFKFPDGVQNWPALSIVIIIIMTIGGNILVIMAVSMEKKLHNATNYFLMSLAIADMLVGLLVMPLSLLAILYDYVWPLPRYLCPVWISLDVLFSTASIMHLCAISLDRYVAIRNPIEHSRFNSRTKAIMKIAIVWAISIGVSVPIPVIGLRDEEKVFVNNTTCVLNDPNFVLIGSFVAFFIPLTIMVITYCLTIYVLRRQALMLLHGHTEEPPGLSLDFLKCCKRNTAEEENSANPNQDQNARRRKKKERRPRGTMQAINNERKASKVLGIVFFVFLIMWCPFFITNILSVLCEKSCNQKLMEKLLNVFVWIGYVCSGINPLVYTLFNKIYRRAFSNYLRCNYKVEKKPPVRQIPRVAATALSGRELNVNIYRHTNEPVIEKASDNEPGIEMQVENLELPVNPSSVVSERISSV

CCN(CC)CCCC(C)Nc1cnc(C(=O)Nc2ccc(Cl)c3cccnc23)cn1 (stereo unspecified)
Vd/F [1]: 51.8 L/kg
Activity (HCT-116 [2]): inactive
Ki [3]: 530 nM
Ki (Histamine H3 receptor): 1180 nM
Activity (MIA PaCa-2 [4]): inactive
Activity (MIA PaCa-2 [5]): Active
AUC(0-inf) [6]: 2680 ng·h/mL
Activity (MIA PaCa-2 [7]): 61%
AUC [8]: 3110 ng·h/mL
Activity (MIA PaCa-2 [9]): inactive
Activity (HCT-116 [10]): inactive
Activity (HCT-116 [11]): 33%
Activity (HCT-116 [12]): 5.1%
Activity (HCT-116 [13]): 2.38%
Activity (MIA PaCa-2 [14]): Active
half-life [15]: 6.1 h
Activity (Panc02): Active
Activity (MIA PaCa-2 [16]): Dose-Dependent Effect
Activity (MIA PaCa-2 [17]): inactive
Activity (MIA PaCa-2 [18]): 30.8%
Activity (MIA PaCa-2 [19]): Active
Activity (HCT-116 [20]): 8.77%
IC50 (BXPC-3): 5800 nM
Ki [21]: 471 nM
Activity (MIA PaCa-2 [22]): 11.44%
Activity (HCT-116 [23]): 48%
Activity (MIA PaCa-2 [24]): 40.03%
Activity (HCT-116 [25]): 47.98%
Activity (MIA PaCa-2 [26]): Active
IC50 (PANC-1): 4000 nM
Activity (HCT-116 [27]): 12.38%
Activity (MIA PaCa-2 [28]): 53.96%
Activity (HCT-116 [29]): 2.87%
viability at […] (MIA PaCa-2 [30]): 54.5%
Activity (HCT-116 [31]): 9.6%
Activity (MIA PaCa-2 [32]): 25.72%
